Test results taken from patent US20190211002A1, “NOVEL TRIAZOLE DERIVATIVES” (Bayer CropScience Aktiengesellschaft, priority 2016, published 2019).

Test: LogP by HPLC on reversed phase columns (EEC directive 79/831 Annex V.A8)
Format: physicochemical
Details: method [a]: LC-UV, acidic range, 0.1% formic acid in water and acetonitrile as eluent
Procedure: Measurement of LogP values was performed according to EEC directive 79/831 Annex V.A8 by HPLC (High Performance Liquid Chromatography) on reversed phase columns with the following methods: • ^[a] […] Lambda-max-values were determined using UV-spectra from 200 nm to 400 nm and the peak values of the chromatographic signals.

Row | Structure (SMILES) | LogP
1 | FC(F)(F)c1nc(Oc2ccc(Br)cc2)ccc1C1(Cn2cncn2)OCC(C(F)(F)F)O1 (racemic) [I.26] | 2.26 ^[a]
2 | Cc1ccc(Oc2ccc(C3(Cn4cncn4)OCCO3)c(C(F)(F)F)n2)cc1 [I.25] | 3.21 ^[a]
3 | CC1COC(Cn2cncn2)(c2ccc(Oc3ccc(S(F)(F)(F)(F)F)cc3)nc2C(F)(F)F)O1 (mixture of isomers) [I.19] | 3.85^[a]
4 | CC1COC(Cn2cncn2)(c2ccc(Oc3ccc(Cl)cc3)nc2C(F)(F)F)O1 (single isomer, unassigned) [I.13] | 3.48^[a]
5 | CCC1COC(Cn2cncn2)(c2ccc(Oc3ccc(Br)cc3)nc2C(F)(F)F)O1 (mixture of isomers) [I.06] | 3.94^[a]
6 | CC1COC(Cn2cncn2)(c2ccc(Oc3ccc(Cl)cc3)nc2C(F)(F)F)O1 (racemic) [I.09] | 3.46^[a]
7 | CC1COC(Cn2cncn2)(c2ccc(Oc3ccc(Cl)cc3)nc2C(F)(F)F)O1 (single isomer, unassigned) [I.12] | 3.48^[a]
8 | Cc1ccc(Oc2ccc(C3(Cn4nc[nH]c4=S)OCCO3)c(C(F)(F)F)n2)cc1 [I-S.03] | 2.94 ^[a]
9 | FC(F)(F)Oc1ccc(Oc2ccc(C3(Cn4cncn4)OCCO3)c(C(F)(F)F)n2)cc1 [I.22] | 3.46 ^[a]
10 | CC1OC(Cn2cncn2)(c2ccc(Oc3ccc(Cl)cc3)nc2C(F)(F)F)OC1C (mixture of isomers) [I.18] | 3.76^[a]
11 | CCC1COC(Cn2cncn2)(c2ccc(Oc3ccc(Cl)cc3)nc2C(F)(F)F)O1 (mixture of isomers) [I.15] | 3.83^[a]
12 | CSc1ccc(Oc2ccc(C3(Cn4nc[nH]c4=S)OCCO3)c(C(F)(F)F)n2)cc1 [I-S.04] | 2.95 ^[a]
13 | CCCC1COC(Cn2cncn2)(c2ccc(Oc3ccc(Br)cc3)nc2C(F)(F)F)O1 (mixture of isomers) [I.08] | 4.32^[a]
14 | CC1COC(Cn2cncn2)(c2ccc(Oc3ccc(Cl)cc3)nc2C(F)(F)F)O1 (mixture of isomers) [I.03] | 3.55^[a]
15 | CCCC1COC(Cn2cncn2)(c2ccc(Oc3ccc(Cl)cc3)nc2C(F)(F)F)O1 (mixture of isomers) [I.05] | 4.19^[a]
16 | CCC1COC(Cn2cncn2)(c2ccc(Oc3ccc(S(F)(F)(F)(F)F)cc3)nc2C(F)(F)F)O1 (mixture of isomers) [I.01] | 4.15^[a]
17 | FC(F)(F)c1nc(Oc2ccc(Br)cc2)ccc1C1(Cn2nc[nH]c2=S)OCCO1 [I-S.05] | 3.14 ^[a]
18 | CC1OC(Cn2cncn2)(c2ccc(Oc3ccc(Br)cc3)nc2C(F)(F)F)OC1C (mixture of isomers) [I.17] | 3.85^[a]
19 | CC1COC(Cn2cncn2)(c2ccc(Oc3ccc(C(F)(F)F)cc3)nc2C(F)(F)F)O1 (mixture of isomers) [I.10] | 3.62^[a]
20 | CCC1COC(Cn2cncn2)(c2ccc(Oc3ccc(OC(F)(F)F)cc3)nc2C(F)(F)F)O1 (stereo not drawn) [I.24] | 4.09 ^[a]
21 | FC(F)(F)c1nc(Oc2ccc(Br)cc2)ccc1C1(Cn2cncn2)OCC(C(F)(F)F)O1 (racemic) [I.23] | 3.80 ^[a]
22 | CSc1ccc(Oc2ccc(C3(Cn4cncn4)OCCO3)c(C(F)(F)F)n2)cc1 [I.20] | 3.05 ^[a]
23 | CC1COC(Cn2cncn2)(c2ccc(Oc3ccc(OC(F)(F)F)cc3)nc2C(F)(F)F)O1 (mixture of isomers) [I.21] | 3.76 ^[a]

Same assay, conditions: reversed phase HPLC column, method [a]: LC-UV, acidic range, 0.1% formic acid in water and acetonitrile as eluent

Row | Structure (SMILES) | chromatographic logP
24 | CC1(c2ccc(Oc3ccc(Cl)cc3)nc2C(F)(F)F)OCCO1 [XV.01, 6-(4-chlorophenoxy)-3-(2-methyl-1,3-dioxolan-2-yl)-2-(trifluoromethyl)pyridine] | 4.44
